The conditions of series [1]: orally administered radiolabeled, rats; cited from earlier work.
Series [2] relates to small intestine bioptic fragments of patients with untreated celiac disease. The experiment in a line: Organ culture of small intestine biopsies of untreated celiac patients (TUNEL, CD25). In kind it is cell-based, human. Particulars: 40 ug/ml, 24 hours organ culture. As to the method: The study was performed in a blind fashion. For this study a organ culture model of celiac, which is a widely used and validated to explore gluten toxicity and mucosal damage in celiac disease was utilized. For the purpose of this project small intestine bioptic fragments of patients with untreated celiac disease were used. Biopsies of untreated celiac patients are ideal to monitor aspects of mucosal damage including induction of epithelial apoptosis and increase of mucosal inflammation.
Twelve adult patients, who were diagnosed as potential untreated celiac patients, were enrolled. Their disease was confirmed by clinical signs, the presence of high titres of anti-tissue transglutaminase and histological analysis of small intestine biopsies.
Organ cultures were performed using standard methods described in Maiuri, L. et al, Gastroenterology 110, 1368-1378. (1996). Briefly a small biopsy fragment (around 1 mm×1 mm) was put on stainless steel mesh and cultured in medium supplemented with the different compounds for a period of 24 hours. The standard positive and negative controls used in studies involving celiac patients and in vitro challenge of biopsies were utilized. The positive control was 1 mg/ml of gliadin peptic-tryptic digest. The negative control was the medium alone. All the compounds to be tested were used at the final concentration of 40 ug/ml. […]
Antigen detection on frozen tissue sections was performed by immunohistochemistry as described in Maiuri, L. et al. Blockage of T-cell costimulation inhibits T-cell action in Celiac disease. […] At least 5 slides for each sample were blindly evaluated. […]
The total number of TUNEL+ enterocytes was referred as percentage of enterocytes. The total number of CD25+ cells in the lamina propria was determined within a standard reference area of 1 mm^2. The counts were performed at a microscope with a calibrated ocular graticule aligned parallel to the muscolaris mucosae and independently analysed by two observers; the results were compared afterwards.

For series [3] the following is noted: administered intravenously, humans; cited from earlier work.

The source of these data is patent US20030134851A1, “Methods and compositions for providing glutamine” (priority 2001, published 2003).

SMILES strings stand for the structures. Entries after “also recorded” stand apart in the source; their conditions may differ.

With `CC(=O)N[C@@H](CCC(N)=O)C(=O)O` [N-acetyl-L-glutamine], the “Absorption across the intestinal mucosa” value in series [1] is “absorbed intact”. The “Induction of epithelial apoptosis (TUNEL) and sub-epithelial inflammation (CD25)” value in series [2] was “did not induce any effect”. In addition, the figures for the “Trophic effect on the biopsies of untreated celiac patients” value in series [2] and in series [2] (listed as N-acetyl-glutamine) were “clear trophic effect; also recorded: appears to improve the overall condition of the mucosa even compared to medium alone” and “clear trophic effect”, respectively. Besides, the “Dose excreted in the urine” value in series [3] is 20-40%.
